One data set concerns Per2:luc U2OS cells. Nature of the data set: Real-time monitoring of circadian oscillation in lumicycle, Per2:luc U2OS cells. Format: cell-based, human. As to the method: Cell culture, drug treatment and Real-Time Monitoring of Circadian Oscillations: Per2-Luc reporter U2OS cells (D15) and Bmal1-Luc reporter U2OS cells (C26) cells were kept in DMEM medium (Gibco), supplemented with 10% FBS (Gibco) and 1% penicillin streptomycin mixture (Gibco). For Circadian Oscillation monitored with lumicycle (Actimetrics), cells were seeded at the density of 10^6 per 3.5 cm dish (Z688851-30EA). The medium was changed into XM medium (PH7.2, 10 mM HEPES, 350 mg/I bicarbonate, 1×B27, 100 IU/ml penicillin, 100 μg/ml streptomycin, 10 μg/ml gentamycin, and 100 μM d-Luciferin) 2 days after cell seeding. 3.5 cm dish was then sealed with high-vacuum grease (Dow Corning) and microscope cover glass, and transferred into lumicycle which was placed in an incubator (37° C.). For Drug treatment, 3.5 cm dish was taken out from lumicycle quickly at indicated time. After chemical was added into the medium, the dish was sealed again and put back into lumicycle. For Circadian Oscillation monitored with Tecan (Perkinelmer), cells were seeded at the density of […] per well for 384-well plate (CLS3610-48EA). 2 days later, the medium was changed into premixed XM medium with different chemicals with or without pentostatin (5 μg/ml). The plate was then sealing with sealing film (Sangon Biotech) and put into Tecan. Data from cells were collected in the Tecan luminometer at 37° C. for 5˜7 days.
The inventors conducted a chemical screen using the human osteosarcoma U2OS cell line so as to discover small molecules that modify the phase of the intracellular clock in mammals. In the primary screen, the inventors used two reporter lines of U2OS harboring a luciferase gene under control of either Per2 or Bmal1 promoter (named Per2-dLuc or Bmal1-dLuc cells), and set the threshold for at least 6 h phase-changes with no apparent amplitude-reduction in both cell lines. […] An institutional pilot chemical library consisting of approximately 10,000 small molecules was applied in this study. […] The inventors set to allow a free-run of the clock before administration of the compound over the course in order to eliminate the possibility that this phase-changing phenomenon was due to a combinative phenotype of medium-change plus the compound effect.
Circadian clock is a transcriptional based feedback loop, however different clock genes contain different cis-element and may show different response to the same stimulation. […] Since the close similar structure with adenosine and potential function of inhibiting transcription by preventing mRNA elongation, we tested whether adenosine and other deoxynucleoside could shift circadian phase. […] Therefore we further tested whether cordycepin utilize adenosine transporter to enter cell or utilize adenosine deaminase to degrade.
One prominent character of zeitgeiber is phase dependent function. Therefore, we further tested whether cordycepin also has the character.

The next data set has as its system Per2::Luc. Description: In-vivo imaging of luciferase signal in Per2::Luc knockin mice. More on the design: species or system mouse. As to the method:
Drug injection and in-vivo imaging analysis: mPer2Luciferase knockin mice were housed in Germ Free Animal Facility, under 12 h light/dark photoperiod, with food and water ad libitum. 8 week-old male mPer2Luciferase knockin mice were intraperitoneal injection with 15 mg/kg bw CA03 or DMSO. CA03 was firstly dissolved in DMSO to the concentration of 200 μg/μl, then dilute with saline to the final concentration of 1000 μg/ml for intraperitoneal injection. 1 h later, d-luciferin (Gold Bio.) was intraperitoneally injected. Relative luciferase activity were imaged on IVIS Lumina III system and analysed with in-vivo imaging software (PerkinElmer). […]
Next, the inventors sought to determine whether the clock effects of cordycepin can be recaptured in vivo. […] This observation is especially true when nascent RNA levels were measured, highlighting the first-order, inductive response in E-box genes as previously proposed(FIG. 2B).
To test whether cordycepin function in vivo, we firstly tested luciferase signal level by live imaging of Per2:LUC mice after intraperitoneal injection of 15 mg/kg cordycepin or DMSO. […] Prior evaluation the jet-leg cure ability of cordycepin, we detected whether cordycepin and it's prodrug pro-CA03 can penetrate BBB. We injected cordycepin or pro-CA03 via tail vein and time course sampled CSF and analyzed cordycepin pro-CA03 level with HPLC-MASS method. […]

The next data set deals with core clock genes. Description: qPCR of pre-mRNA of core clock genes in liver. Format: in vivo, mouse. The settings on record: 15 mg/kg, 1 h after treatment. Here is the method:
Total RNA Extraction and pre-mRNA Analysis: Total RNA from liver was extracted 1 h after treatment of either DMSO or 15 mg/kg bw with QIAGEN Rneasy Mini Kit (74104, Qiagen), then digested with RNase-Free DNase Set (79254, Qiagen) to remove DNA residual. 500 ng total was reverse transcripted into cDNA with PrimeScript™ RT Master Mix (Takara, RR036A). To compare pre-mRNA levels, equal amount of cDNA RNA from DMSO and CA03 treated samples were analyzed using SYBR Green Master Mix (Kapa Biosystems, KP-KK4601) on a BioRad CFX96 instrument. Each gene was analyzed with multiple primers across the whole gene, and the amplification products were either intronic or across an intron-exon junction. Only primers with good melt-curve were used. For quantification, gene expression in DMSO treated sample was used as control, the relative genes expression in CA03 treated sample calculated by the comparative Ct Method.
Next, the inventors sought to determine whether the clock effects of cordycepin can be recaptured in vivo. […] Mice were intraperitoneally (i.p.) injected with the cordycepin at ZT4 (ZT, zeitgeber time; ZT0 starts light-on, and ZT12 begins light-off). […] This observation is especially true when nascent RNA levels were measured, highlighting the first-order, inductive response in E-box genes as previously proposed(FIG. 2B). […]
(In general: Quantitative PCR measures a nucleic acid by following its amplification.)

Data set [1] is described as follows: Cordycepin concentration in CSF after intraperitoneal injection. The class given is in vivo. From the text:
We measured the cordycepin concentration in cerebrospinal fluid (CSF) after the intraperitoneal (I.P.) injection.

Molecules are shown by their SMILES. Where only a bound is given, the exact number is not on record here.

In the case of `Nc1ncnc2c1ncn2[C@@H]1O[C@H](CO)C[C@H]1O` [Cordycepin, 3′-deoxy-adenosine], the phase shift in the data set with Per2:luc U2OS cells (100 μM applied at CT10) is 12 h. In the data set with Per2:luc U2OS cells (100 μM applied at CT 20), the phase shift is on record as roughly 0 h. Further, in the data set on Per2:luc U2OS cells (applied at Per2 peak, 100 μM), the Per2-dLuc phase shift is 12 h. In addition, in the data set with Per2:luc U2OS cells (applied at Per2 trough), the Per2-dLuc phase shift is 0 h and the “amplitude of Per2-dLuc” value is recorded as “increase the amplitude”. Further, the “increase of luciferase signal in liver compared with DMSO control” value with Per2::Luc (15 mg/kg intraperitoneal) is on record as “more than 4 folds”. Also, the “time to induction of luciferase signal after drug administration” value in the data set with Per2::Luc (i.p. at ZT4) was no more than 1 h. In the data set with core clock genes, the “E-box gene transcription (pre-mRNA, liver)” value was “activate”; the “RRE gene and internal control gene transcription (pre-mRNA, liver)” value was “repress”. In addition, the “time of detection in the CSF after the injection” value in data set [1] is recorded as no more than 15 min.

Source of the values: patent US12667584B2, “Adenosine analog and its use in regulating the circadian clock” (NATIONAL INSTITUTE OF BIOLOGICAL SCIENCES, BEIJING, priority 2017, dated 2026).
